# Laboratory results taken from US20250353873A1, “COMPOUNDS AND METHODS FOR MODULATING APOE EXPRESSION” (Ionis Pharmaceuticals, Inc., priority 2024, published 2025).
# Strand notation (5' to 3'): a small letter for the sugar, then the base; units joined by * are phosphorothioate-linked, units joined directly phosphodiester-linked; [ ] holds rarer units or linkages, { } end groups; capitals alone tell only the bases. [ms] = mesyl phosphoramidate linkage; e = 2'-O-(2-methoxyethyl) (MOE); k = constrained ethyl (cEt); [5mC] = 5-methylcytosine; d = 2'-deoxy (DNA)
# Tests used:
# human APOE RNA [1] = assay: Dose-dependent inhibition of human APOE RNA in differentiated SH-SY5Y cells, free uptake, 5 days (Example 5); type: cell-based
# Experimental: Modified oligonucleotides selected from the examples above were tested at various doses in differentiated SH-SY5Y cells. The modified oligonucleotides were tested in a series of experiments that had the same culture conditions.
# Differentiated SH-SY5Y cells plated at a density of 10,000 cells per well were treated by free uptake with various concentrations of modified oligonucleotide as specified in the tables below. […] APOE RNA levels were measured using the human primer probe set RTS3073 (described herein above). APOE RNA levels were normalized to human PPIA. Human PPIA was amplified using human primer probe set mk_cycloA_2nd (described herein above). Results are presented as percent APOE RNA, relative to the amount of APOE RNA in untreated control cells (% UTC). The half maximal inhibitory concentration (IC50) of each modified oligonucleotide was calculated in GraphPad Prism 10 (GraphPad Software, San Diego, CA) and is also presented in the tables below.
# human APOE RNA [2] = assay: Activity in APOE C57BL/6NTac-Apoeem7250 knock-in mice, single ICV bolus, 4 weeks (Example 10); type: in vivo; conditions: single ICV bolus 300 μg, 4 weeks post treatment, normalized to mouse Ppia
# Procedure, shortened: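 Knock-in mice (2–4 per group) received one 300 μg ICV bolus of oligonucleotide or PBS. After four weeks, human APOE RNA in cortex and spinal cord measured by RT-qPCR (primer probe set RTS3073), normalized to mouse Ppia, expressed as % of PBS controls.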
# human APOE RNA [3] = assay: Activity in APOE C57BL/6NTac-Apoeem7250 knock-in mice, single ICV bolus, 8 weeks (Example 11); type: in vivo; conditions: for APOE RNA (% control) Cortex / APOE RNA (% control) Spinal Cord: single ICV bolus 300 μg, 8 weeks post treatment, normalized to mouse Ppia; for reduction of human APOE RNA in the cortex: APOE knock-in mouse model, 8 weeks post administration, assay of Example 11
# Procedure, shortened: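 Human APOE knock-in C57BL/6NTac mice given one ICV bolus of 300 μg oligonucleotide; PBS-dosed group as control. At 8 weeks, cortex and spinal cord RNA measured by qRT-PCR (human probe RTS3073), normalized to mouse Ppia, expressed as % of PBS control.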
# human APOE RNA [4] = assay: Dose-dependent reduction of human APOE RNA in HepG2 cells, electroporation, 20,000 cells per well, average of GAPDH- and PPIA-normalized results (Example 4, Table 12); type: cell-based; conditions: HepG2, 20,000 cells per well; for IC50: approximately 24 hours
# Experimental: HepG2 cells plated at a density of 20,000 cells per well were treated by electroporation with various concentrations of modified oligonucleotide as specified in the tables below. […] APOE RNA levels were measured using the human primer probe set RTS3073 (described herein above). APOE RNA levels were normalized to human GAPDH, and human PPIA. Human GAPDH was amplified using human primer probe set RTS104 (described herein above). Human PPIA was amplified using human primer probe set mk_cycloA_2nd (described herein above) The average of the GAPDH-normalized results and the PPIA-normalized results are presented in the table below as percent APOE RNA, relative to the amount of APOE RNA in untreated control cells (% UTC). The half maximal inhibitory concentration (IC50) of each modified oligonucleotide was calculated in GraphPad Prism 10 (GraphPad Software, San Diego, CA) and is also presented in the table below.
Substance,"APOE RNA (% UTC) (human APOE RNA [1]; 5 nM, 5 days (Table 14))","APOE RNA (% UTC) (human APOE RNA [1]; 13 nM, 5 days (Table 14))","APOE RNA (% UTC) (human APOE RNA [1]; 33 nM, 5 days (Table 14))","APOE RNA (% UTC) (human APOE RNA [1]; 82 nM, 5 days (Table 14))","APOE RNA (% UTC) (human APOE RNA [1]; 205 nM, 5 days (Table 14))","APOE RNA (% UTC) (human APOE RNA [1]; 512 nM, 5 days (Table 14))","APOE RNA (% UTC) (human APOE RNA [1]; 1,280 nM, 5 days (Table 14))","APOE RNA (% UTC) (human APOE RNA [1]; 3,200 nM, 5 days (Table 14))","APOE RNA (% UTC) (human APOE RNA [1]; 8,000 nM, 5 days (Table 14))","APOE RNA (% UTC) (human APOE RNA [1]; 20,000 nM, 5 days (Table 14))",IC50 (human APOE RNA [1]; 5 days (Table 14)) [µM],APOE RNA (% control) Cortex (human APOE RNA [2]) [% control],APOE RNA (% control) Spinal Cord (human APOE RNA [2]) [% control],APOE RNA (% control) Cortex (human APOE RNA [3]) [% control],APOE RNA (% control) Spinal Cord (human APOE RNA [3]) [% control],APOE RNA (% UTC) (human APOE RNA [4]; 5 nM),APOE RNA (% UTC) (human APOE RNA [4]; 13 nM),APOE RNA (% UTC) (human APOE RNA [4]; 33 nM),APOE RNA (% UTC) (human APOE RNA [4]; 82 nM),APOE RNA (% UTC) (human APOE RNA [4]; 205 nM),further results
1778111: modified oligonucleotide complementary to human APOE RNA (eA*e[5mC]eTeTeG*kG*dT*dG[ms]dA[ms]dA*dT*d[5mC]*dT*dT*dT*dA[ms]eTeT*eA*eA; antisense) [compound 1778111],67,68,41,41,32,62,59,43,25,17,0.11,34,53,41,17,106,88,91,77,62,"APOE RNA (% UTC) (human APOE RNA [4]; 512 nM): 43 % UTC; APOE RNA (% UTC) (human APOE RNA [4]; 1,280 nM): 32 % UTC; APOE RNA (% UTC) (human APOE RNA [4]; 3,200 nM): 21 % UTC; APOE RNA (% UTC) (human APOE RNA [4]; 8,000 nM): 14 % UTC; APOE RNA (% UTC) (human APOE RNA [4]; 20,000 nM): 8 % UTC; IC50 (human APOE RNA [4]): 0.44 µM"
1778128: modified oligonucleotide complementary to human APOE RNA (eA*e[5mC]eTeTkGkG*dT*dG[ms]dA[ms]dA*dT*d[5mC]*dT*dT*dT*dA[ms]kTeT*eA*eA; antisense) [compound 1778128],91,51,99,63,74,32,30,40,33,23,0.53,31,40,27,25,96,95,83,67,60,"APOE RNA (% UTC) (human APOE RNA [4]; 512 nM): 37 % UTC; APOE RNA (% UTC) (human APOE RNA [4]; 1,280 nM): 24 % UTC; APOE RNA (% UTC) (human APOE RNA [4]; 3,200 nM): 25 % UTC; APOE RNA (% UTC) (human APOE RNA [4]; 8,000 nM): 22 % UTC; APOE RNA (% UTC) (human APOE RNA [4]; 20,000 nM): 14 % UTC; IC50 (human APOE RNA [4]): 0.35 µM"
1785599: modified oligonucleotide complementary to human APOE RNA (k[5mC]*kT*kT*dG[ms]dG[ms]dT[ms]dG[ms]dA[ms]dA[ms]dT[ms]d[5mC]*dT*dT*dT*dA*dT*kT*kA*dA[ms]kA; antisense) [compound 1785599],77,61,72,60,46,20,21,17,12,6,0.1,32,38,26,34,100,106,93,81,71,"APOE RNA (% UTC) (human APOE RNA [4]; 512 nM): 43 % UTC; APOE RNA (% UTC) (human APOE RNA [4]; 1,280 nM): 32 % UTC; APOE RNA (% UTC) (human APOE RNA [4]; 3,200 nM): 18 % UTC; APOE RNA (% UTC) (human APOE RNA [4]; 8,000 nM): 10 % UTC; APOE RNA (% UTC) (human APOE RNA [4]; 20,000 nM): 15 % UTC; IC50 (human APOE RNA [4]): 0.51 µM"
1785617: modified oligonucleotide complementary to human APOE RNA (k[5mC]*dT[ms]dT[ms]kG*dG[ms]kT*dG[ms]dA[ms]dA[ms]dT[ms]d[5mC]*dT*dT*dT*dA*dT*kT*kA*dA[ms]kA; antisense) [compound 1785617],118,116,84,71,59,56,29,21,22,10,0.52,39,38,30,213,95,93,82,68,55,"APOE RNA (% UTC) (human APOE RNA [4]; 512 nM): 32 % UTC; APOE RNA (% UTC) (human APOE RNA [4]; 1,280 nM): 23 % UTC; APOE RNA (% UTC) (human APOE RNA [4]; 3,200 nM): 16 % UTC; APOE RNA (% UTC) (human APOE RNA [4]; 8,000 nM): 20 % UTC; APOE RNA (% UTC) (human APOE RNA [4]; 20,000 nM): 6 % UTC; IC50 (human APOE RNA [4]): 0.26 µM"
Aks^mCeoTeoTesGesGksTdsGdzAdzAdzTds^mCdsTdsTdsTdsAdzTksTksAesAe (kA*e[5mC]eTeT*eG*kG*dT*dG[ms]dA[ms]dA[ms]dT*d[5mC]*dT*dT*dT*dA[ms]kT*kT*eA*eA) [Compound No. 1809635],–,–,–,–,–,–,–,–,–,–,–,–,–,26,15,–,–,–,–,–,"APOE RNA (% UTC) (human APOE RNA [1]; 5 nM, 5 days (Table 13)): 67 % UTC; APOE RNA (% UTC) (human APOE RNA [1]; 13 nM, 5 days (Table 13)): 62 % UTC; APOE RNA (% UTC) (human APOE RNA [1]; 33 nM, 5 days (Table 13)): 52 % UTC; APOE RNA (% UTC) (human APOE RNA [1]; 82 nM, 5 days (Table 13)): 43 % UTC; APOE RNA (% UTC) (human APOE RNA [1]; 205 nM, 5 days (Table 13)): 33 % UTC; APOE RNA (% UTC) (human APOE RNA [1]; 512 nM, 5 days (Table 13)): 27 % UTC; APOE RNA (% UTC) (human APOE RNA [1]; 1,280 nM, 5 days (Table 13)): 40 % UTC; APOE RNA (% UTC) (human APOE RNA [1]; 3,200 nM, 5 days (Table 13)): 28 % UTC; APOE RNA (% UTC) (human APOE RNA [1]; 8,000 nM, 5 days (Table 13)): 20 % UTC; APOE RNA (% UTC) (human APOE RNA [1]; 20,000 nM, 5 days (Table 13)): 20 % UTC; IC50 (human APOE RNA [1]; 5 days (Table 13)): 0.05 µM; reduction of human APOE RNA in the cortex (human APOE RNA [3]): 74%"
TezTeoGeoGksTdsGdzAdzAdzTds^mCdsTdsTdsTdsAdzTksTksAesAesAes^mCe (antisense eT[ms]eTeGkG*dT*dG[ms]dA[ms]dA[ms]dT*d[5mC]*dT*dT*dT*dA[ms]kT*kT*eA*eA*eA*e[5mC]) [Compound No. 1809814],–,–,–,–,–,–,–,–,–,–,–,–,–,36,33,–,–,–,–,–,"APOE RNA (% UTC) (human APOE RNA [1]; 5 nM, 5 days (Table 13)): 91 % UTC; APOE RNA (% UTC) (human APOE RNA [1]; 13 nM, 5 days (Table 13)): 66 % UTC; APOE RNA (% UTC) (human APOE RNA [1]; 33 nM, 5 days (Table 13)): 61 % UTC; APOE RNA (% UTC) (human APOE RNA [1]; 82 nM, 5 days (Table 13)): 63 % UTC; APOE RNA (% UTC) (human APOE RNA [1]; 205 nM, 5 days (Table 13)): 47 % UTC; APOE RNA (% UTC) (human APOE RNA [1]; 512 nM, 5 days (Table 13)): 53 % UTC; APOE RNA (% UTC) (human APOE RNA [1]; 1,280 nM, 5 days (Table 13)): 39 % UTC; APOE RNA (% UTC) (human APOE RNA [1]; 3,200 nM, 5 days (Table 13)): 39 % UTC; APOE RNA (% UTC) (human APOE RNA [1]; 8,000 nM, 5 days (Table 13)): 41 % UTC; APOE RNA (% UTC) (human APOE RNA [1]; 20,000 nM, 5 days (Table 13)): 33 % UTC; IC50 (human APOE RNA [1]; 5 days (Table 13)): 0.55 µM; reduction of human APOE RNA in the cortex (human APOE RNA [3]): 64%"
